Where two headings read alike, the source gives them in different places.
What was measured:
mouse L929 cells = test: cytotoxicity to mouse L929 cells; type: cell-based; conditions: 550 nm
Procedure: (§1) Cytotoxicity to mouse L929 cells was assayed as follows:
(§2) L929 cells were suspended to the concentration of 1.5×10^5 cells/ml in the F12 culture medium supplemented with 10% FCS. One hundred μl of the suspension was added to each well of 96-well microculture plates, and cultured at 37° C. in an atmosphere of 5% carbon dioxide for 24 hours, to which 100 μl of the test solution was added and cultured for further 48 hours. After the culture, 100 μl of the supernatant was removed and the absorbancy at 550 nm was measured in the same way as the colormetry using MTT in Experimental Example 1. The percent suppression was calculated by the following formula used as the index of cytotoxicity. [formula]

[1] = cytotoxicity to mouse L929 cells; type: cell-based; conditions: mouse, l929 cells, read-out: Suppression
Procedure: as §1, §2

in vitro = type: cell-based, human; conditions: human, read-out: Suppression
Procedure: (§3) Cytotoxicity to human tumor cell lines was examined as follows:
(§4) Cells of human cell lines, K562, MOLT4, U937, HL60, KATOIII, KB, PC-6, PC-14 and CCRF-CEM were separately suspended to the concentration of 2×10^5 cells/ml in the RPMI1640 culture medium supplemented with 20% FCS. Fifty μl of this suspension was added to each well of 96-well microculture plates to which 50 μl of the test solution had been added. After culturing at 37° C. in an atmosphere of 5% carbon dioxide for 72 hours, the absorbancy at 550 nm was measured in the same way as the colorimetry using MTT in Experimental Example 1, and the percent suppression was calculated in the same manner as in Experimental Example 14, which was used as the index of cytotoxicity.

KB = test: in vitro; type: cell-based, human
Procedure: as §3, §4

U937 = test: in vitro; type: cell-based, human
Procedure: as §3, §4

PC-14 = test: in vitro; type: cell-based, human
Procedure: as §3, §4

K562 = test: in vitro; type: cell-based, human
Procedure: as §3, §4

HL60 = test: in vitro; type: cell-based, human
Procedure: as §3, §4

CCRF-CEM = test: in vitro; type: cell-based, human
Procedure: as §3, §4

[2] = test system: mouse allogenic mixed lymphocyte reaction (BALB/c responder, C57BL/6 stimulator spleen cells); test: mouse allogenic mixed lymphocyte reaction (MLR), blastogenesis by 3H-thymidine uptake; type: cell-based; conditions: for inhibition at 0.001 µg/mL / inhibition at 0.01 µg/mL / inhibition at 0.1 µg/mL: Mus musculus, Lymphocyte, read-out: Suppression
Procedure: The immunosuppressive activity of the compounds (I) and their lactones was assayed by using mouse allogenic mixed lymphocyte reaction (hereinafter sometimes abbreviated as MLR). Mouse allogenic MLR was carried out by mixed culture of the BALB/c mouse (H-2^d) spleen cells as the responder cells and the mitomycin C-treated C57BL/6 (H-2^b) spleen cells as the stimulator cells in equal amounts.
The responder cells were prepared as follows: The spleen was resected from 5- to 6-week-old male BALB/c mice, and single cell suspension of spleen cells was prepared by using the RPMI1640 culture medium (containing 60 μg/ml of kanamycin sulfate, 2 mM of L-glutamine, 10 mM of N-2-hydroxyethylpiperazine-N'-2-ethanesulfonate (HEPES) and 0.1% sodium hydrogencarbonate) to which heat-inactivated fetal calf serum (hereinaftersometimes abbreviated as FCS) had been added to 5%. After hemolytic treatment, the cell suspension was adjusted to a concentration of 10^7 cells/ml by using the RPMI1640 culture medium supplemented with 10^-4 M 2-mercaptoethanol and 20% FCS, and was used as the responder cell suspension.
The stimulator cells were prepared as follows:
The spleen was resected from 5- to 6-week-old male C57BL/6 mice, and single cell suspension of spleen cells was prepared by using the RPMI1640 culture medium. After hemolytic treatment, the cells were treated with 40 μg/ml of mitomycin C at 37° C. for 60 minutes. After washing three times, the concentration of the cell suspension was adjusted to 10^7 cells/ ml by using the RPMI1640 culture medium supplemented with 10^-4 M 2-mercaptoethanol and 20% FCS, and was used as the stimulator cell suspension.
Fifty μl of the responder cell suspension, 50μl of the stimulator cell suspension prepared by the above method, and 100 μl of the test substance were placed in 96-well microculture plates, and were cultured at 37° C. in an atmosphere of 5% carbon dioxide for 4 days.
The blastogenesis of lymphocytes was assayed by a method of ^3 H-thymidine uptake as an index. That is, after termination of the culture, 0.5 μCi/well of ^3 H-thymidine was added and cultured for 4 hours. Cells were harvested by a cell-harvester, and the radioactivity incorporated into the cells was determined by a liquid scintillation counter to obtain the index of blastogenesis of lymphocytes in the mouse allogenic MLR. The suppression of the mouse allogenic MLR was evaluated by calculating the percent suppression by the following formula. [formula]
The test substance was dissolved in methanol or suspended in a mixture of methanol and acetic acid, and then diluted with the RPMI1640 culture medium.

MOLT4 = test: cytotoxicity to tumor cell line MOLT4; type: cell-based, human
Procedure: as §3, §4

[3] = cytotoxicity to tumor cell line MOLT4; type: cell-based, human; conditions: human, molt4 cells, read-out: Suppression
Procedure: as §3, §4

CCCCCCC(O)CCCCCCCCCC(O)C(O)C(N)(CO)C(=O)O (stereo not drawn) [Example 9]
Absorbancy (mouse L929 cells; 1 μg/ml): 0.749
Absorbancy (mouse L929 cells; 10 μg/ml): 0.747
Absorbancy (mouse L929 cells; 100 μg/ml): 0.567
cytotoxicity at 48 h ([1]; 1 μg/ml): 0%
cytotoxicity at 48 h ([1]; 10 μg/ml): 0%
cytotoxicity at 48 h ([1]; 100 μg/ml): 1%
cytotoxicity at 72 h (in vitro; ccrf-cem cells, 0.1 μg/ml): 0%
cytotoxicity at 72 h (in vitro; ccrf-cem cells, 1.0 μg/ml): 0%
cytotoxicity at 72 h (in vitro; ccrf-cem cells, 10.0 μg/ml): 1.7%
cytotoxicity at 72 h (in vitro; hl60 cells, 0.1 μg/ml): 13.8%
cytotoxicity at 72 h (in vitro; hl60 cells, 1.0 μg/ml): 16.7%
cytotoxicity at 72 h (in vitro; hl60 cells, 10.0 μg/ml): 20.9%
cytotoxicity at 72 h (in vitro; k562 cells, 0.1 μg/ml): 1.8%
cytotoxicity at 72 h (in vitro; k562 cells, 1.0 μg/ml): 5.5%
cytotoxicity at 72 h (in vitro; k562 cells, 10.0 μg/ml): 17.7%
cytotoxicity at 72 h (in vitro; kb cells, 0.1 μg/ml): 0%
cytotoxicity at 72 h (in vitro; kb cells, 1.0 μg/ml): 0%
cytotoxicity at 72 h (in vitro; kb cells, 10.0 μg/ml): 4.7%
cytotoxicity at 72 h (in vitro; pc-14 cells, 0.1 μg/ml): 14.8%
cytotoxicity at 72 h (in vitro; pc-14 cells, 1.0 μg/ml): 7%
cytotoxicity at 72 h (in vitro; pc-14 cells, 10.0 μg/ml): 21.1%
cytotoxicity at 72 h (in vitro; u937 cells, 0.1 μg/ml): 0%
cytotoxicity at 72 h (in vitro; u937 cells, 1.0 μg/ml): 0%
cytotoxicity at 72 h (in vitro; u937 cells, 10.0 μg/ml): 0%
Absorbancy (KB; 0.1 μg/ml): 0.778
Absorbancy (KB; 1.0 μg/ml): 0.762
Absorbancy (KB; 10.0 μg/ml): 0.696
Absorbancy (U937; 0.1 μg/ml): 0.640
Absorbancy (U937; 1.0 μg/ml): 0.592
Absorbancy (U937; 10.0 μg/ml): 0.584
Absorbancy (PC-14; 0.1 μg/ml): 0.404
Absorbancy (PC-14; 1.0 μg/ml): 0.441
Absorbancy (PC-14; 10.0 μg/ml): 0.374
Absorbancy (K562; 0.1 μg/ml): 0.378
Absorbancy (K562; 1.0 μg/ml): 0.364
Absorbancy (K562; 10.0 μg/ml): 0.317
Absorbancy (HL60; 0.1 μg/ml): 0.450
Absorbancy (HL60; 1.0 μg/ml): 0.435
Absorbancy (HL60; 10.0 μg/ml): 0.413
Absorbancy (CCRF-CEM; 0.1 μg/ml): 0.702
Absorbancy (CCRF-CEM; 1.0 μg/ml): 0.696
Absorbancy (CCRF-CEM; 10.0 μg/ml): 0.680
3H-thymidine uptake ([2]; 0.001 μg/ml): 25682 cpm
3H-thymidine uptake ([2]; 0.01 μg/ml): 23668 cpm
3H-thymidine uptake ([2]; 0.1 μg/ml): 3167 cpm
inhibition at 0.001 µg/mL ([2]; 0.001 μg/ml): 7.5%
inhibition at 0.01 µg/mL ([2]; 0.01 μg/ml): 17.1%
inhibition at 0.1 µg/mL ([2]; 0.1 μg/ml): 100%
Absorbancy (MOLT4; 0.1 μg/ml): 0.111
Absorbancy (MOLT4; 1.0 μg/ml): 0.132
Absorbancy (MOLT4; 10.0 μg/ml): 0.142
cytotoxicity at 72 h ([3]; 0.1 μg/ml): 23.4%
cytotoxicity at 72 h ([3]; 1.0 μg/ml): 9%
cytotoxicity at 72 h ([3]; 10.0 μg/ml): 2.1%

CCCCCCC(O)CCCCCCCCCC1OC(=O)C(N)(CO)C1O (stereo not drawn) [Example 10]
Absorbancy (mouse L929 cells; 1 μg/ml): 0.722
Absorbancy (mouse L929 cells; 10 μg/ml): 0.661
Absorbancy (mouse L929 cells; 100 μg/ml): 0.023
cytotoxicity at 48 h ([1]; 1 μg/ml): 0%
cytotoxicity at 48 h ([1]; 10 μg/ml): 0%
cytotoxicity at 48 h ([1]; 100 μg/ml): 96%
cytotoxicity at 72 h (in vitro; ccrf-cem cells, 0.1 μg/ml): 2.9%
cytotoxicity at 72 h (in vitro; ccrf-cem cells, 1.0 μg/ml): 6.5%
cytotoxicity at 72 h (in vitro; ccrf-cem cells, 10.0 μg/ml): 6.8%
cytotoxicity at 72 h (in vitro; hl60 cells, 0.1 μg/ml): 14.4%
cytotoxicity at 72 h (in vitro; hl60 cells, 1.0 μg/ml): 20.5%
cytotoxicity at 72 h (in vitro; hl60 cells, 10.0 μg/ml): 22.3%
cytotoxicity at 72 h (in vitro; k562 cells, 0.1 μg/ml): 0%
cytotoxicity at 72 h (in vitro; k562 cells, 1.0 μg/ml): 10.9%
cytotoxicity at 72 h (in vitro; k562 cells, 10.0 μg/ml): 19.2%
cytotoxicity at 72 h (in vitro; kb cells, 0.1 μg/ml): 0%
cytotoxicity at 72 h (in vitro; kb cells, 1.0 μg/ml): 0%
cytotoxicity at 72 h (in vitro; kb cells, 10.0 μg/ml): 16.4%
cytotoxicity at 72 h (in vitro; pc-14 cells, 0.1 μg/ml): 8.6%
cytotoxicity at 72 h (in vitro; pc-14 cells, 1.0 μg/ml): 13.3%
cytotoxicity at 72 h (in vitro; pc-14 cells, 10.0 μg/ml): 33.1%
cytotoxicity at 72 h (in vitro; u937 cells, 0.1 μg/ml): 6.5%
cytotoxicity at 72 h (in vitro; u937 cells, 1.0 μg/ml): 7.2%
cytotoxicity at 72 h (in vitro; u937 cells, 10.0 μg/ml): 11.3%
Absorbancy (KB; 0.1 μg/ml): 0.743
Absorbancy (KB; 1.0 μg/ml): 0.735
Absorbancy (KB; 10.0 μg/ml): 0.610
Absorbancy (U937; 0.1 μg/ml): 0.545
Absorbancy (U937; 1.0 μg/ml): 0.541
Absorbancy (U937; 10.0 μg/ml): 0.517
Absorbancy (PC-14; 0.1 μg/ml): 0.433
Absorbancy (PC-14; 1.0 μg/ml): 0.411
Absorbancy (PC-14; 10.0 μg/ml): 0.317
Absorbancy (K562; 0.1 μg/ml): 0.390
Absorbancy (K562; 1.0 μg/ml): 0.343
Absorbancy (K562; 10.0 μg/ml): 0.311
Absorbancy (HL60; 0.1 μg/ml): 0.447
Absorbancy (HL60; 1.0 μg/ml): 0.415
Absorbancy (HL60; 10.0 μg/ml): 0.406
Absorbancy (CCRF-CEM; 0.1 μg/ml): 0.672
Absorbancy (CCRF-CEM; 1.0 μg/ml): 0.647
Absorbancy (CCRF-CEM; 10.0 μg/ml): 0.645
3H-thymidine uptake ([2]; 0.001 μg/ml): 19595 cpm
3H-thymidine uptake ([2]; 0.01 μg/ml): 19019 cpm
3H-thymidine uptake ([2]; 0.1 μg/ml): 2405 cpm
inhibition at 0.001 µg/mL ([2]; 0.001 μg/ml): 36.4%
inhibition at 0.01 µg/mL ([2]; 0.01 μg/ml): 39.1%
inhibition at 0.1 µg/mL ([2]; 0.1 μg/ml): 100%
Absorbancy (MOLT4; 0.1 μg/ml): 0.148
Absorbancy (MOLT4; 1.0 μg/ml): 0.159
Absorbancy (MOLT4; 10.0 μg/ml): 0.170
cytotoxicity at 72 h ([3]; 0.1 μg/ml): 0%
cytotoxicity at 72 h ([3]; 1.0 μg/ml): 0%
cytotoxicity at 72 h ([3]; 10.0 μg/ml): 0%

Source: patent US5219884A, “Immunosuppressant” (Taito Co., Ltd., priority 1990, dated 1993)
